In patent US20250073186A1, “COMBINATION TREATMENT METHODS” (Rose Research Center, LLC, priority 2021, published 2025):

Legend:
smokers [1] = details: bupropion alone; cited from earlier work
cigarette smoking adults = assay: Open-label switching study: side effects (AE/SAE reporting) and adherence; assay type: in vivo, human; details: zonisamide added to bupropion
Procedure: There was a data collection period of at least five days to obtain baseline data on use of combustible cigarettes. Participants enrolled in the study received a G6 e-cigarette at V2 for ad libitum use.
At each session, expired air CO was measured along with blood pressure, heart rate, respiratory rate and body weight. Participants also completed questionnaires rating subjective effects of smoking and e-cigarette use. Participants were given enough cartomizers and study drugs to last until their next scheduled session, along with an extra 4 days' worth to allow for flexibility in case sessions need to be rescheduled. E-cigarette usage and study drug compliance were tracked not only by self-reported number of occasions used, but also by cartomizer counts (used or unused) and returned study drugs.
AE/SAE Reporting AEs/SAEs were assessed using questionnaires and interviews at the indicated time points and spontaneous reporting from the time of ICF signature until the EOS for the participant.

smokers [2] = details: cited from earlier work

SMILES | typical abstinence rate (smokers [1]) | effect on adverse events associated with bupropion, such as insomnia (cigarette smoking adults) | effect on anger, restlessness and impatience (smokers [2]; during smoking abstinence) | effect on ad libitum smoking (smokers [2]; in vivo) | effect on craving for cigarettes (smokers [2]; in vivo)
CC(NC(C)(C)C)C(=O)c1cccc(Cl)c1 (centres unmarked) [bupropion] | ~25% | – | – | – | –
NS(=O)(=O)Cc1noc2ccccc12 [zonisamide] | – | appeared to reduce incidences of adverse events associated with bupropion | decrease anger, restlessness and impatience | reduce ad libitum smoking | relieve craving for cigarettes
